According to ChEMBL document CHEMBL1201862, “PubChem BioAssay data set” (2004):
Values joined by “and” are separate entries in the source; they are usually repeats but may differ in a detail not shown here. Equal values may be shown once. Active and inactive are the calls of the source.

Key:
[1] = biological target: Cytochrome P450 2D6 (Homo sapiens, UniProt P10635); test: qHTS Assay for Inhibitors and Substrates of Cytochrome P450 2D6. [Related pubchem assays: 410 ]; format: ADME; settings: read-out: Potency
Chain of Cytochrome P450 2D6 (P10635 whole entry): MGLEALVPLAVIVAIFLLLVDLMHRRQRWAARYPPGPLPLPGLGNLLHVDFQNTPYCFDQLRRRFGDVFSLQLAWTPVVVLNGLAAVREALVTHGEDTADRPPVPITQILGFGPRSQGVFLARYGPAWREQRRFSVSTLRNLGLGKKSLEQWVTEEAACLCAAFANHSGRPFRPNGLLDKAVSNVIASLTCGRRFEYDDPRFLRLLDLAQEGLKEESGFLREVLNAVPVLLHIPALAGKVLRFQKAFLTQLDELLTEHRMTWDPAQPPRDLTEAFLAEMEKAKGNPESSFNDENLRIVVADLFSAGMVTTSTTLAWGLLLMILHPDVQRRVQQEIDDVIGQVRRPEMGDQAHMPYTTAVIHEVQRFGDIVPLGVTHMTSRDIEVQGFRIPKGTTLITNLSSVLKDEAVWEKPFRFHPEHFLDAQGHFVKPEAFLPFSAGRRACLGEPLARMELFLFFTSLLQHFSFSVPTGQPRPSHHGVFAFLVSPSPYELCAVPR

[2] = biological target: Cytochrome P450 2C9 (Homo sapiens, UniProt P11712); settings: Potency
[3] = biological target: T1, Eukaryotic translation initiation factor 2-alpha kinase 3 (Homo sapiens, UniProt Q9NZJ5); test: Counterscreen assay for PERK inhibitors: Dose response cell-based high throughput screening assay to measure inhibition of PERK at 6 hours. [Related pubchem assays: 1522, 1416 ]; format: functional
T1 sequence (Q9NZJ5 whole entry): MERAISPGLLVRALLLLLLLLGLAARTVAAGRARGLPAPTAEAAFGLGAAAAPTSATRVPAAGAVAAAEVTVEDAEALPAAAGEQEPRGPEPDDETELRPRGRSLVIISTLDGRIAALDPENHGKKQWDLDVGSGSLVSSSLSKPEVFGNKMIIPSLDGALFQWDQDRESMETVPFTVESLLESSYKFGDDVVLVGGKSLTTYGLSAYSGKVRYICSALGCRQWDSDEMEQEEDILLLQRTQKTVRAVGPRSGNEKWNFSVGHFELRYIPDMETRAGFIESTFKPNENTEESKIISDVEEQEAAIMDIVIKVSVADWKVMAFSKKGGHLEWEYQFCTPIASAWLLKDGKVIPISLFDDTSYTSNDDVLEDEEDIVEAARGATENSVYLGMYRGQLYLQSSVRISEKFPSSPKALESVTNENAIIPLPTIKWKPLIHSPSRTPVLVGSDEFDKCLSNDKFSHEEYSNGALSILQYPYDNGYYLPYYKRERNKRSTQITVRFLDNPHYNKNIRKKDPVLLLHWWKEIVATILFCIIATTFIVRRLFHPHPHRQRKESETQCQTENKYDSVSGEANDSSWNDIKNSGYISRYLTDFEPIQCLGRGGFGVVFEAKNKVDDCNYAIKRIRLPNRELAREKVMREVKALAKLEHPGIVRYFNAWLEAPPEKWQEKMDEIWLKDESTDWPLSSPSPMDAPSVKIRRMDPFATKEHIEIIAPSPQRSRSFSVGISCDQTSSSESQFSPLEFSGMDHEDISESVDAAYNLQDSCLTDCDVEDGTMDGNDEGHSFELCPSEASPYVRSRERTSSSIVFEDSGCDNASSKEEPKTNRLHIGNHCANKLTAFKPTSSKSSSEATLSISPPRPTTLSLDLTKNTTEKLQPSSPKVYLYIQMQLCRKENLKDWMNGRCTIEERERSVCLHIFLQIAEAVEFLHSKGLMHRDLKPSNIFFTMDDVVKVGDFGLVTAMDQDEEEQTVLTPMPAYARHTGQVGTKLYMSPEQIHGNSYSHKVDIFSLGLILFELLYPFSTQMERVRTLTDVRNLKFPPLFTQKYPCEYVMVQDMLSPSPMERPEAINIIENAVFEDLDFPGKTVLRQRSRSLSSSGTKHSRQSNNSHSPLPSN

[4] = biological target: T1, Eukaryotic translation initiation factor 2-alpha kinase 3; test: Dose response cell-based high-throughput screening assay to measure PERK inhibition. [Related pubchem assays: 1416 ]; format: functional
[5] = biological target: CAAX prenyl protease 2 (Saccharomyces cerevisiae S288c, UniProt Q03530); format: biochemical
Chain of CAAX prenyl protease 2 (Saccharomyces cerevisiae S288c, UniProt Q03530) (Q03530 whole entry): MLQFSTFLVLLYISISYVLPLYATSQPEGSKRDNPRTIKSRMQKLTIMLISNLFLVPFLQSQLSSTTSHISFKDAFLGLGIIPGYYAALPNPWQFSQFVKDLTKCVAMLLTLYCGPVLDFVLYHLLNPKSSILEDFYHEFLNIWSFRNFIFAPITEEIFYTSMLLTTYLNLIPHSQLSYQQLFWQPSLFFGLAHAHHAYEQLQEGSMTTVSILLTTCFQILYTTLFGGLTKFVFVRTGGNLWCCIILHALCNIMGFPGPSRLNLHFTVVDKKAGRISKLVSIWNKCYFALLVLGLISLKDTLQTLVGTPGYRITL

[6] = biological target: CAAX prenyl protease 2 (Homo sapiens, UniProt Q9Y256); test: human Rce1 protease inhibitors, dose response, biochemical, yeast membranes, quenched-peptide fluorescence, cherry-pick (AID 588849)
[7] = biological target: Acyl-homoserine lactone acylase PvdQ (Pseudomonas aeruginosa (strain LESB58), UniProt Q9I194); test: P. aeruginosa PvdQ acylase inhibitors, dose response, biochemical, fluorescence, plate reader and imaging, cherry-picks (AID 493231)
[8] = inhibition of K1F phage lysis, E. coli UTI89, bacterial capsule biogenesis inhibitors, alamar blue (AID 488966); format: functional
[9] = biological target: T2, Voltage-gated N-type calcium channel alpha-1B subunit/Amyloid beta A4 precursor protein-binding family A member 1 (Homo sapiens, UniProt Q00975+Q02410); format: protein assay
[10] = growth suppression of PTEN-null colon cells, dose response, cell-based, HCT116 PTEN knockout (AID 1047); format: functional;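 note: HCT116 colon tumor cells with PTEN knocked out; cells exposed to compound for 60 hours before readout; potency for loss of cell viability measured by luminescence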
[11] = biological target: T2, Voltage-gated N-type calcium channel alpha-1B subunit/Amyloid beta A4 precursor protein-binding family A member 1; format: protein assay; remark: listed apart in the source
[12] = biological target: Glucose-6-phosphate 1-dehydrogenase (Homo sapiens, UniProt P11413); test: human G6PD enzyme inhibitors, dose response, selectivity assay for P. falciparum G6PD inhibitor project, biochemical, fluorescence (AID 504792); format: functional
[13] = biological target: Large T antigen (Simian virus 40, UniProt P03070); format: functional, Betapolyomavirus macacae;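 note: Confirmatory-stage PubChem screen for compounds that inhibit SV40 T antigen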
[14] = growth suppression of beta-catenin-knockout colon cells, dose response, cell-based, HCT116, human colon tumor (AID 1045); format: functional;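 note: HCT116 colon tumor cells with beta catenin knocked out; cells exposed to compound for 60 hours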
[15] = biological target: DNA dC->dU-editing enzyme APOBEC-3G (Homo sapiens, UniProt Q9HC16); test: Dose Response confirmation of small molecule APOBEC3G DNA Deaminase Inhibitors via a fluorescence-based single-stranded DNA deaminase assay. [Related pubchem assays (depositor defined):AID493012, AID493028]; format: functional
[16] = biological target: Potassium voltage-gated channel subfamily KQT member 2 (Rattus norvegicus, UniProt O88943); test: retigabine-insensitive KCNQ2 potentiators, concentration-response, dose response, cell-based, retigabine-insensitive compounds (AID 2654); format: functional
[17] = biological target: Alkaline phosphatase, placental type (Homo sapiens, UniProt P05187); test: PLAP enzyme inhibitors, confirmation, biochemical, luminescence (AID 1512); format: functional
Chain of Alkaline phosphatase, placental type (P05187 whole entry): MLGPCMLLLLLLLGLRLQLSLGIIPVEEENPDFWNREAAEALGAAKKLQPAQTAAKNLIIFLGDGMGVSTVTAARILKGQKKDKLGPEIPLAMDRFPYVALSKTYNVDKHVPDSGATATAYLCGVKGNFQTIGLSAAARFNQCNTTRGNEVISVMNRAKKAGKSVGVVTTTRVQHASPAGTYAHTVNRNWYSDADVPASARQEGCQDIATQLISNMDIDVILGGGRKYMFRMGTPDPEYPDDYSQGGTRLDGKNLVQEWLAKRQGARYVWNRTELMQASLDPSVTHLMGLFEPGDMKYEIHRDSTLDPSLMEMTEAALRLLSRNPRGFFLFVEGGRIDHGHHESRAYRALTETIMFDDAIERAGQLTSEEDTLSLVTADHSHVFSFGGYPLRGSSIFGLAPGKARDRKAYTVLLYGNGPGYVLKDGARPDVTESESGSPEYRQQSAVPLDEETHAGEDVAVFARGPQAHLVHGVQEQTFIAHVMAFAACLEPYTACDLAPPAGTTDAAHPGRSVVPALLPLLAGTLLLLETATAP

[18] = biological target: T3, Mannose-6-phosphate isomerase (Homo sapiens, UniProt P34949); test: Confirmation of compounds inhibiting phosphomannose isomerase (PMI) via a fluorescence intensity assay using a high concentration of mannose 6-phosphate. [Related pubchem assays (depositor defined):AID1209, AID1220, AID1545, AID1553, AID1620]
T3 sequence (P34949 whole entry): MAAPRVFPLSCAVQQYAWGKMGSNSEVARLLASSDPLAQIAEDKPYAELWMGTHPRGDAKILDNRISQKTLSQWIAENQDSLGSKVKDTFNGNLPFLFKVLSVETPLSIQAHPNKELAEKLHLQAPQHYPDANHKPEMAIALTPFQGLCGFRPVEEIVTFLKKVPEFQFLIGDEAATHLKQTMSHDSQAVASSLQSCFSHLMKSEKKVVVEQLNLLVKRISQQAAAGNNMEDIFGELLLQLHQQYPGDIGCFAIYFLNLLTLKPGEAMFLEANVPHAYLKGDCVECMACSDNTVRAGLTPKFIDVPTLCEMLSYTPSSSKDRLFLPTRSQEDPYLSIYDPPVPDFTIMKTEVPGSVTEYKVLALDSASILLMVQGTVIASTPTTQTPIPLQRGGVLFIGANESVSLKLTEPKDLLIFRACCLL

[19] = biological target: T3, Mannose-6-phosphate isomerase; test: PMI enzyme inhibitors, confirmation, biochemical, fluorescence intensity (AID 1535)
[20] = biological target: T4, Dual specificity protein phosphatase 3 (Homo sapiens, UniProt P51452); test: MOA VHR1 Fluorescent secondary assay for identification of redox-state modulating compounds. [Related pubchem assays (depositor defined):AID1654, AID1661, AID1878, AID1957]
T4 sequence (P51452 whole entry): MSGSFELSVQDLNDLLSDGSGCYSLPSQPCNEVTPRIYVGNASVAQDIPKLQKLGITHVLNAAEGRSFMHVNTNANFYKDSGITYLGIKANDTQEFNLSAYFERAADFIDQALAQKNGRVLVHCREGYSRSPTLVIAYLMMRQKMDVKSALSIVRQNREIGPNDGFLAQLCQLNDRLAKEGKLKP

[21] = biological target: T5, Tyrosine-protein phosphatase non-receptor type 7 (Homo sapiens, UniProt P35236); format: functional
T5 sequence (P35236 whole entry): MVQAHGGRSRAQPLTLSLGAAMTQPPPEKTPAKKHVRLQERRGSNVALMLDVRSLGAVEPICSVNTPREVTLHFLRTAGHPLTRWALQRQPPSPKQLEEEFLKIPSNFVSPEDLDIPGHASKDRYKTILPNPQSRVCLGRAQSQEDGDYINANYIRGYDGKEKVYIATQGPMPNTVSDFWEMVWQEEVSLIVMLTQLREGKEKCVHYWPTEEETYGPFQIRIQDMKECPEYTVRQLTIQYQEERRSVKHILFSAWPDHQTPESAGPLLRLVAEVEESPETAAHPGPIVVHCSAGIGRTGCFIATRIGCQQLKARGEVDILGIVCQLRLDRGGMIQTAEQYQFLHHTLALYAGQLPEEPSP

[22] = biological target: T4, Dual specificity protein phosphatase 3; test: SAR VHR1 Fluorescent Assay for In Vitro dose response studies. [Related pubchem assays (depositor defined):AID1654, AID1661, AID1878, AID1992, AID2004, AID2070, AID2085]; format: functional
[23] = biological target: T5, Tyrosine-protein phosphatase non-receptor type 7; test: redox-dependent HePTP inhibition, mechanism study, biochemical, fluorescence (AID 2068); format: functional
[24] = biological target: T6, Dual specificity protein phosphatase 6 (Rattus norvegicus, UniProt Q64346)
T6 sequence (Q64346 whole entry): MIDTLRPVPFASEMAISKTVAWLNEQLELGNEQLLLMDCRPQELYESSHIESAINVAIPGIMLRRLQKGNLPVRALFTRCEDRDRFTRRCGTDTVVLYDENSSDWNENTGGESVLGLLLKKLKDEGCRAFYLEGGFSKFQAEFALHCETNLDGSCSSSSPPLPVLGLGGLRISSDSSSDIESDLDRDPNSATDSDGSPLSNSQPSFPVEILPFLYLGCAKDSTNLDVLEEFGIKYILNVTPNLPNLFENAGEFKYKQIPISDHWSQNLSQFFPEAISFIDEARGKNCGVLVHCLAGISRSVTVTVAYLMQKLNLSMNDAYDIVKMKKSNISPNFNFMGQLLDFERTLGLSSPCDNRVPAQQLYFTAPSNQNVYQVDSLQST

[25] = biological target: Glyceraldehyde-3-phosphate dehydrogenase (Homo sapiens, UniProt P04406)
[26] = biological target: T6, Dual specificity protein phosphatase 6; format: functional
[27] = biological target: Phosphoethanolamine/phosphocholine phosphatase (Homo sapiens, UniProt Q8TCT1); test: SAR assay for compounds that inhibit PHOSPHO1. [Related pubchem assays (depositor defined):AID1545, AID1565, AID1574]
Chain of Phosphoethanolamine/phosphocholine phosphatase (Q8TCT1 whole entry): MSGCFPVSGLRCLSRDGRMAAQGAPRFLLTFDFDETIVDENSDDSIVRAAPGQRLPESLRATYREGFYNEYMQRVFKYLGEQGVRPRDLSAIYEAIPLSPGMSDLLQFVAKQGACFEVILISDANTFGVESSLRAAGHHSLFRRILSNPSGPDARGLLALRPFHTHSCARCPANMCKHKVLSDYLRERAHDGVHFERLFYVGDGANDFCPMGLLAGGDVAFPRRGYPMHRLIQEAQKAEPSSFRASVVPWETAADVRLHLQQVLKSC

[28] = biological target: Phosphomannomutase 2 (Homo sapiens, UniProt O15305); test: Counter screen SAR assay for PMM2 inhibitors via a fluorescence intensity assay. [Related pubchem assays (depositor defined):AID1545, AID1574]
Chain of Phosphomannomutase 2 (O15305 whole entry): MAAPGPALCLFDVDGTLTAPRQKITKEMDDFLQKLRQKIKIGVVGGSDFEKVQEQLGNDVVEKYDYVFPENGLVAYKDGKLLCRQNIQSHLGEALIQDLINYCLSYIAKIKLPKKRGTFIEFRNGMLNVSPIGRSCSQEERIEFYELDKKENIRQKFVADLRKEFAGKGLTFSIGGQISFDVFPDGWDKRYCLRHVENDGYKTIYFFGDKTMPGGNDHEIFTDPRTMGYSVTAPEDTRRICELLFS

[29] = cytotoxicity in NIH/3T3 mouse fibroblasts, dose response, cytotoxicity control, cell-based, mouse embryonic fibroblasts, dry powder, set 2 (AID 493247); format: functional; settings: Fibroblast
[30] = tested on: Trypanosoma cruzi; test: growth inhibition of intracellular Trypanosoma cruzi, dose response, cell-based, plate reader, dry powder, set 3 (AID 493197); format: functional
[31] = biological target: Sphingosine 1-phosphate receptor 4 (Homo sapiens, UniProt O95977); test: S1P4 receptor agonists, human, late-stage follow-up, cell-based, fluorescence, synthesized compounds (AID 463107); format: functional
[32] = biological target: T7, Kappa-type opioid receptor (Homo sapiens, UniProt P41145); format: functional
T7 sequence (P41145 whole entry): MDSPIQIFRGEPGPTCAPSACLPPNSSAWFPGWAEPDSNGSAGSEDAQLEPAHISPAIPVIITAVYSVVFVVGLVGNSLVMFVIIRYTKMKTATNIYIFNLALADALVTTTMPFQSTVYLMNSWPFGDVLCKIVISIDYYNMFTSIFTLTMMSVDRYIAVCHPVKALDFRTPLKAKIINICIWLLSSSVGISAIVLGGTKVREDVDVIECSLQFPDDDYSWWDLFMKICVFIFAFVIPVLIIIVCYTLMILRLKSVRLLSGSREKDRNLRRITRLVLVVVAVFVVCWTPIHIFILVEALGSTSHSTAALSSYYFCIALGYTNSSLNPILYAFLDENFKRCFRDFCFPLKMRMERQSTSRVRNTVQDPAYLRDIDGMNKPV

[33] = cells; format: functional, cell-based
[34] = biological target: T7, Kappa-type opioid receptor; format: functional; remark: listed apart in the source
[35] = biological target: T8, Beta-galactosidase (Escherichia coli, UniProt Q8VNN2); format: functional
T8 sequence (Q8VNN2 whole entry): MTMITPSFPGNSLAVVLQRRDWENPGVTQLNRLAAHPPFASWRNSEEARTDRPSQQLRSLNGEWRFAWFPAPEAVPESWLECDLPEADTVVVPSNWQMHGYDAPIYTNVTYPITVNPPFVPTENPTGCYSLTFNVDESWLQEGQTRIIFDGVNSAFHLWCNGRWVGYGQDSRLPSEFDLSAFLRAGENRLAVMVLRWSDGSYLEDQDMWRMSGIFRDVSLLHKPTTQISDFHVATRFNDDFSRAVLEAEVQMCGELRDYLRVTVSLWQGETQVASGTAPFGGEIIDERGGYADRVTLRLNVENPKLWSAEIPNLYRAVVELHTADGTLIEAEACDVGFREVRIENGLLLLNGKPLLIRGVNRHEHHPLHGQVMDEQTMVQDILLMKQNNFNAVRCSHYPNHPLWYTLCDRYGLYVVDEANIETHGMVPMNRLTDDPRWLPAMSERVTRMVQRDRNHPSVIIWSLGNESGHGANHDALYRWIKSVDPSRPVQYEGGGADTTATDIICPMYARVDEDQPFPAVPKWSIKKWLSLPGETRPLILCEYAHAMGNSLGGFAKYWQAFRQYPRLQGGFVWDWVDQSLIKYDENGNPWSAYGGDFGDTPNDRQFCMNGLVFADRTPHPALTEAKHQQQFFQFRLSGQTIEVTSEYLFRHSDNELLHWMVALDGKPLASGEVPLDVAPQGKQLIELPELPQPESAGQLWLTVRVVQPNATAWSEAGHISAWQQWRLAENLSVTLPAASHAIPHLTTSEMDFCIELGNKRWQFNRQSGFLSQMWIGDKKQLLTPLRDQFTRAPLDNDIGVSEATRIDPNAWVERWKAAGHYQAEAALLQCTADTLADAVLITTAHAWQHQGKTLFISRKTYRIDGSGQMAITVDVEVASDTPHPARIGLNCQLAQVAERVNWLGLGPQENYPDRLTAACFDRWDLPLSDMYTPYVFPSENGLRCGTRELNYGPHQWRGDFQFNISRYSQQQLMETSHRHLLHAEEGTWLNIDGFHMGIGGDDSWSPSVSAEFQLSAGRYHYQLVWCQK

[36] = tested on: Vero; test: cells; format: functional; settings: Chlorocebus sabaeus
[37] = cytotoxicity toward NIH3T3 fibroblasts, dose response, counter-screen, cell-based, ATP luminescence, mouse fibroblasts (AID 2010); format: functional;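 note: cells exposed to compound for about 90 hours before reading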
[38] = inhibitors of intracellular T. cruzi replication, confirmation, NIH3T3 host cells, beta-gal luminescence (AID 2044); format: functional, cell-based;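 note: intracellular parasites grown in NIH/3T3 mouse fibroblasts as host cells; luminescent beta-galactosidase reporter signal from transgenic T. cruzi replicating inside host cells; inhibitors lower the luminescence signal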
[39] = biological target: T9, Microphthalmia-associated transcription factor (Homo sapiens, UniProt O75030); test: TRPM1 promoter luciferase signal decrease, dose response, MITF inhibitor project, cell-based, SK-MEL-5, cherry-picked, set 3 (AID 493073); format: functional
T9 sequence (O75030 whole entry): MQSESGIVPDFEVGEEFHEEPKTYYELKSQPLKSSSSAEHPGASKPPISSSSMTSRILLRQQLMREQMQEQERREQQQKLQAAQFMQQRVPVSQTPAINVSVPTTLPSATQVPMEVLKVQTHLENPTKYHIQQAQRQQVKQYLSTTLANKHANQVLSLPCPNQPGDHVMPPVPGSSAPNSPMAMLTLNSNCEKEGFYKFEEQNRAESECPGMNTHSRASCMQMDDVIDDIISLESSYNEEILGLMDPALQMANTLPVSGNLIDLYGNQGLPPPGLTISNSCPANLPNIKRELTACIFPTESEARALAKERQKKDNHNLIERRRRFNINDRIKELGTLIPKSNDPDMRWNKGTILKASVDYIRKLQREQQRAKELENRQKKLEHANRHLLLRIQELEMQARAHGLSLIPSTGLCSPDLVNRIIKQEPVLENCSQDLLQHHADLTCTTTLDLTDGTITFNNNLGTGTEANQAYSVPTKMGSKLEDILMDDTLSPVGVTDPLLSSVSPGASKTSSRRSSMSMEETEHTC

[40] = cells; format: functional, cell-based; remark: listed apart in the source
[41] = tested on: INS1; test: beta cell apoptosis inhibitors, cytokine rescue, dose response, luminescence, retest (AID 449756); format: functional, cell-based; settings: Rattus norvegicus;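 note: cell death triggered by IL-1 beta plus TNF-alpha plus IFN-gamma mixture; protective hits raise ATP signal compared with cytokine alone wells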
[42] = biological target: T8, Beta-galactosidase; test: beta-galactosidase enzyme inhibitors and activators, dose response, artefact control for CCR6 antagonist project, biochemical, E. coli enzyme, set 3 (AID 504712); format: functional
[43] = Luminescence Cell-Based Dose Retest to Confirm Inhibitors of Cancer Stem Cells. [Related pubchem assays (depositor defined):AID2717, AID2721]; format: functional; settings: Homo sapiens
[44] = biological target: C-C chemokine receptor type 6 (Homo sapiens, UniProt P51684); test: CCR6 receptor antagonists, dose response, cell-based, luminescent beta-arrestin readout (AID 504728); format: functional
Chain of C-C chemokine receptor type 6 (P51684 whole entry): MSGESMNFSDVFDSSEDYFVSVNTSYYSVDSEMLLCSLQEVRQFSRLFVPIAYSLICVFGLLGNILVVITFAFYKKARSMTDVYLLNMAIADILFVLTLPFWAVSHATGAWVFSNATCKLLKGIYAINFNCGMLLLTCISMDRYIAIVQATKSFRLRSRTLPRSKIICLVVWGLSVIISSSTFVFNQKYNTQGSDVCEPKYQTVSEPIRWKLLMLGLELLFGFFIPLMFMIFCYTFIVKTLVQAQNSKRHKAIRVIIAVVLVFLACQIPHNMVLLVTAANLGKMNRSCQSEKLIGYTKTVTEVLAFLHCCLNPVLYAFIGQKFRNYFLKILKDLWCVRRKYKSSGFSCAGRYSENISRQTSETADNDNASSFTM

COC(=O)[C@@H]1[C@H]2C[C@H]3c4[nH]c5cc(OC)ccc5c4CCN3C[C@@H]2C[C@@H](OC(=O)c2cc(OC)c(OC)c(OC)c2)[C@@H]1OC
AC50 [1]: 39.8 µM (inconclusive) and 12.6 µM (inconclusive)
AC50 [2]: 15.8 µM (inconclusive)

Cc1cc2c(NC(=O)Nc3ccc(F)cc3)cccc2nn1
EC50 [3]: > 55.7 µM (not active)
EC50 [4]: > 55.7 µM (not active)

Cc1cc(C)nc(SCc2cn3c(C)cc(C)nc3n2)n1
AC50 [5]: 35.7 µM (active)
AC50 [6]: 35.2 µM (active)

CCNC(=O)COc1ccc2ccccc2c1
AC50 [7]: 11.7 µM (active)

Cc1nc(NC(=O)c2ccco2)sc1C(=O)Nc1ccc(Br)cc1
IC50 [8]: > 75 µM (active)

Cc1cc(C)c2c(=O)n(CC(=O)N3CCC(N4CCCCC4)CC3)sc2n1
IC50 [9]: 16.2 µM (active)
EC50 [10]: 22.6 µM (active)
IC50 [11]: > 50 µM (inactive)
IC50 [12]: 37 µM (inactive)
IC50 [13]: 28.1 µM (active)
EC50 [14]: 18.6 µM (active)
IC50 [15]: 9.83 µM (active)

Cc1cccc(NC(=O)Nc2cccnc2)c1C
EC50 [16]: 16 µM (active)

CCCCN1C(=O)/C(=N\Nc2ccccc2O)c2ccccc21
IC50 [17]: > 100 µM (inactive)
IC50 [18]: > 100 µM (inactive)
IC50 [19]: > 100 µM (inactive)

O=c1/c(=C/c2ccc(-c3ccccc3[N+](=O)[O-])o2)sc2nc3cc(Br)cnc3n12
IC50 [20]: 5.53 µM (active)
IC50 [21]: 43.9 µM (active)
IC50 [22]: 12.1 µM (active)
IC50 [23]: 4.13 µM (active)
IC50 [24]: 49 µM (active)
IC50 [25]: > 100 µM (not active)
IC50 [26]: 55.5 µM (active)

Cc1c(Cl)cccc1-n1sc2cc(F)ccc2c1=O
IC50 [27]: 1.53 µM (inactive)
IC50 [19]: 28.6 µM (active)
IC50 [28]: 8.74 µM (active)

O=C(N/N=C/c1ccc([N+](=O)[O-])o1)c1ccccn1
AC50 [29]: 28 µM (active)
AC50 [30]: 1.47 µM (active)

Cc1ccc(OCCOc2ccc(C)nc2[N+](=O)[O-])c([N+](=O)[O-])n1
EC50 [31]: > 50 µM (inactive)

C/C(=N\NC(=O)Cc1ccc(Cl)cc1)c1ccccn1
IC50 [32]: 5.02 µM (active)
EC50 [33]: 54.9 µM (active)
IC50 [34]: > 32 µM
EC50 [35]: > 31.5 µM (inactive)
CC50 [36]: 2.29 µM (active)
EC50 [37]: < 6 µM (inconclusive)
EC50 [38]: 0.635 µM (active)
AC50 [39]: 4.22 µM (active)
EC50 [40]: 57.6 µM (active)
AC50 [41]: 1.05 µM (active)

C=C(CC[C@@H](O)C(C)(C)O)[C@H]1CC[C@]2(C)[C@@H]1CC[C@@H]1[C@@]3(C)CC[C@H](O)C(C)(C)C3CC[C@]12C (stereo not given in full)
IC50 [42]: > 66.6 µM (inactive)
AC50 [43]: 0.561 µM (active)
IC50 [44]: > 66.6 µM (inactive)
